We go through 14 compounds from patent US7015211B2 (Yale University, priority 2003, dated 2006).

Data set [1] concerns human endometrial adenocarcinoma cells (Ishikawa). Put plainly: Estrogenic potency in Ishikawa cells, induction of alkaline phosphatase (AlkP). To be noted: for Ishikawa cell AlkP (RSA): relative stimulatory activity = EC50 of E2 / EC50 of analog x 100, E2 = 100, 3 days, ± SD. It counts as cell-based. As for the experimental part:
Estrogenic Potency in Ishikawa Cells. The estrogenic potency of the E2-analogs was determined in an estrogen bioassay, the induction of alkaline phosphatase (AlkP) in human endometrial adenocarcinoma cells (Ishikawa) grown in 96-well microtiter plates as we have previously described.^38 In short, the cells are grown in phenol red free medium with estrogen depleted (charcoal stripped) bovine serum in the presence or absence of varying amounts of the steroids, across a dose range of at least 6 orders of magnitude. […] After 3 days, the cells are washed, frozen and thawed, and then incubated with 5 mM p-nitrophenyl phosphate, a chromogenic substrate for the AlkP enzyme, at pH 9.8. To ensure linear enzymatic analysis, the plates are monitored kinetically for the production of p-nitrophenol at 405 nm. […] Each compound was analyzed in at least 3 separate experiments performed in duplicate.

The target in data set [2] is T1, ER (ERα) in uterine cytosol (Rattus norvegicus, UniProt P06211).
T1 sequence (P06211 1-600): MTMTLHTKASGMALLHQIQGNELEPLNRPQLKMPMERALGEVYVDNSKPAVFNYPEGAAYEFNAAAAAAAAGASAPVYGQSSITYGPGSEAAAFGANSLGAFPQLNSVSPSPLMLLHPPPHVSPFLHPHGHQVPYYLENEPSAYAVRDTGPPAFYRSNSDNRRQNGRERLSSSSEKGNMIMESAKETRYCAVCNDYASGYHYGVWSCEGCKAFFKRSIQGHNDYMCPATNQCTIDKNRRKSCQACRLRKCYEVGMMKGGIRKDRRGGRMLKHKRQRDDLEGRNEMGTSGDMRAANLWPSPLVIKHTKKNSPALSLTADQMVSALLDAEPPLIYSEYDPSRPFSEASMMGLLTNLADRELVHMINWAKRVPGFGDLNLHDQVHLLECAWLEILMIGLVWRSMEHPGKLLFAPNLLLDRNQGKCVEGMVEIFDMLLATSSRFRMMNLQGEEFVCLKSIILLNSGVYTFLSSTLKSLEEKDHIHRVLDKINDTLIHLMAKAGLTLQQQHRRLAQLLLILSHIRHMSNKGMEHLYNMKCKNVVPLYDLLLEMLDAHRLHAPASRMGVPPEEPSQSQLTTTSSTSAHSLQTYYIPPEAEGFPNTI
Kind of data set: Competitive binding to the estrogen receptor in rat uterine cytosol. To be noted: for Estrogen Receptor (RBA): relative binding affinity, E2 = 100, rat uterine cytosol, 1 nM [3H]E2, ± SD; for RBA: relative to E2.

Data set [3] relates to esterase, rat hepatic microsomes. Kind of data set: Esterase hydrolysis in rat hepatic microsomes. In kind it is in vitro ADME. How it is done: Esterase. Esterase activity was measured in rat hepatic microsomes essentially using the conditions described^41 with some minor modifications. Briefly, rat hepatic microsomes were incubated with 50 μM E2-alkyl ester. Since the rates of reaction are widely different for the various esters, the incubation times and enzyme concentration were varied accordingly to obtain linear kinetics. In every experiment, E16-1,2 was run concurrently to normalize the rate of hydrolysis of each compound. At several appropriate time points during the incubation (37° C.), 100 μL aliquots were quenched with a solution of 2 μg of the internal standard, 6-ketoestradiol in 33 μL of CH3CN, 33 μL of THF and 5 μL of glacial HOAc. The mixture was centrifuged and analyzed for the esterase-hydrolysis product (the corresponding E2-carboxylic acid) by reversed phase HPLC: E16-1,0; E15-1,0; E15-2,0; and E15-3,0 by HPLC with system H-29. Peaks for the hydrolysis product (E16-1,0 tR=10.7 min; E15-1,0 tR=6.9 min; E15-2,0 tR=9.9 min; E15-3,0 tR=14 min;) and the internal standard (tR=11.8 min for system H-29 and tR=8.8 min for system H-30 were quantified at 280 nm on the HPLC UV detector. The UV absorbance was converted to nmoles of product by comparison to standard curves and corrected for recovery of the internal standard, 6-ketoestradiol. The velocity of the reaction for each ester, in nmol product/min/mg protein, was then normalized to the ester, E16-1,2 and is shown in Table 1 as relative hydrolytic activity (RHA) The enzymatic velocity for the hydrolysis of E16-1,2 was 2.34±0.8 (S.D.) nmol product/min/mg protein over the various experiments. All compounds were tested in triplicate in at least 2 separate experiments

Data set [4] has as its system vagina of ovariectomized mice. Put plainly: In vivo estrogen bioassay: vaginal reductases (local). On the set-up: species or system mouse. As for the experimental part:
In Vivo Estrogen Bioassays: Vaginal reductases. […] The formazan product in the organic extract is quantified at 500 nm. Except where noted, each compound was assayed on at least 2 separate occasions with at least 5–6 replicates each time.

Another data set deals with uterus of immature rats. Kind of data set: In vivo estrogen bioassay: uterine weight (uterotrophic assay, systemic). The arrangement: species or system rat. How it is done:
In Vivo Estrogen Bioassays: Uterine Weight. […] Control animals received sesame oil. On the fourth day, the animals were killed, the uteri were removed, dissected, blotted and weighed. Except where noted, each compound was assayed in 2 separate experiments with n=5.

The target in data set [5] is T2, ligand binding domain (LBD) of human ERβ (M214-Q530) (Homo sapiens, UniProt Q92731).
T2 construct: human ERβ (M214-Q530); made in house; host or cells: Escherichia coli (lysate used)
Put plainly: Competitive binding to the LBD of human ERβ in E. coli lysates. Conditions: RBA compared to E2 (=100), [3H]E2, ± SD.

The target in data set [6] is T3, ligand binding domain (LBD) of human ERα (M250-V595) (Homo sapiens, UniProt P03372).
T3 construct: human ERα (M250-V595); made in house; host or cells: Escherichia coli (lysate used)
T3 sequence (P03372 250-595): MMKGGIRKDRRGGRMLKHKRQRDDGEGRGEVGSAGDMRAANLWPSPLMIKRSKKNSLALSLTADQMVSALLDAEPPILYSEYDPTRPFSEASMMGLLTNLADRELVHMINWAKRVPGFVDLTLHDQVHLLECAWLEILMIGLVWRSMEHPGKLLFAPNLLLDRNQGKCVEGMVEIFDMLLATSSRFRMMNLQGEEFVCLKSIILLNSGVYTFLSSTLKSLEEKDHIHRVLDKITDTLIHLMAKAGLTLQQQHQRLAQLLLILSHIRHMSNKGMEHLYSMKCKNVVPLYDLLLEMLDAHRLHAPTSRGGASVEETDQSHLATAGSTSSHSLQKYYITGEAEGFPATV
Kind of data set: Competitive binding to the LBD of human ERα in E. coli lysates.

Where “and” joins values, the source holds several entries; their conditions need not be identical. Identical values can stand only once. Entries after “also recorded” stand apart in the source; their conditions may differ. Like-named read-outs stand apart in the source and are kept apart here. Marks after values point to notes of the source that are not given here.

T2 sequence (Q92731 214-530): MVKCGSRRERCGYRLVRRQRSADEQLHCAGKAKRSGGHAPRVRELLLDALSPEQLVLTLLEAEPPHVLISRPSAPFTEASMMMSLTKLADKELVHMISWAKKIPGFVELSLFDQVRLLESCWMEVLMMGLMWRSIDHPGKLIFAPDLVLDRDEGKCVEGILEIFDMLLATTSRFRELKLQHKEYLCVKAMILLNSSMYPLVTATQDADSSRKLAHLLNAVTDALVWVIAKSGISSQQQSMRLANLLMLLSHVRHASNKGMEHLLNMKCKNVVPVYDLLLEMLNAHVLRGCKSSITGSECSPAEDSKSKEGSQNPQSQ

`C[C@]12CC[C@@H]3c4ccc(O)cc4CC[C@H]3[C@@H]1CCC2=O` [Compound E1, estrone, reference compound]: in data set [1], the “Ishikawa cell AlkP (RSA)” value is recorded as 4 ± 2.
`C[C@]12CC[C@@H]3c4ccc(O)cc4CC[C@H]3[C@@H]1[C@@H](C(=O)O)C[C@@H]2O` [E15-1,0, 3,17β-Dihydroxyestra-1,3,5(10)-trien-15α-carboxylic acid]: in data set [1], the “estrogenic activity in the Ishikawa cell assay (in words)” value is “nor does it have estrogenic activity; also recorded: very low, not measurable”. Also, in data set [2], the “binding to the estrogen receptor (in words)” value is given as “does not bind to the estrogen receptor; also recorded: very low, not measurable”.
Turning to `COC(=O)CC[C@H]1C[C@H](O)[C@@]2(C)CC[C@@H]3c4ccc(O)cc4CC[C@H]3[C@H]12` [E15-3,1, Methyl 3-(3,17β-dihydroxyestra-1,3,5(10)-trien-15α-yl)propionate], the “Ishikawa cell AlkP (RSA)” value in data set [1] is 0. Moreover, in data set [3], the “Esterase (RHA)” value amounted to 248 ± 26. Moreover, the “Estrogen Receptor (RBA)” value in data set [2] is given as 0.8 ± 0.1.
In the case of `COC(=O)C[C@H]1C[C@H](O)[C@@]2(C)CC[C@@H]3c4ccc(O)cc4CC[C@H]3[C@H]12` [E15-2,1, Methyl(3,17β-dihydroxyestra-1,3,5(10)-trien-15α-yl)acetate], the “Ishikawa cell AlkP (RSA)” value in data set [1] came out at 1 ± 1. The “Esterase (RHA)” value in data set [3] was 31 ± 6. In data set [2], the “Estrogen Receptor (RBA)” value is 5 ± 3 and the “RBA” value was 5%.
As to `CCOC(=O)CC[C@H]1C[C@H](O)[C@@]2(C)CC[C@@H]3c4ccc(O)cc4CC[C@H]3[C@H]12` [E15-3,2, Ethyl 3-(3,17β-dihydroxyestra-1,3,5(10)-trien-15α-yl)propionate], the “Ishikawa cell AlkP (RSA)” value in data set [1] is given as 0. Further, the “Esterase (RHA)” value in data set [3] worked out at 674 ± 14. In addition, in data set [2], the “Estrogen Receptor (RBA)” value is reported as less than 0.1.
“2′-Fluoroethyl(3,17β-dihydroxyestra-1,3,5(10)-trien-15α-yl)formate [E15-1,2F1]”: in data set [1], the “Ishikawa cell AlkP (RSA)” value stood at 3 ± 0.2. Also, the “Esterase (RHA)” value in data set [3] (relative hydrolytic activity in comparison to E16-1,2 (=100), 50 μM ester, 37° C., ± SD) worked out at 4.5 ± 0.1.
`C[C@]12CC[C@@H]3c4ccc(O)cc4CC[C@H]3[C@@H]1C[C@@H](C(=O)OCCF)[C@@H]2O` [E16-1,2F1, reference compound]: in data set [4] (50 ng instilled into the vagina, ovariectomized mice, compared to 50 pg E2, brackets = range), the “Vaginal effect 50 ng dose (pg E2 equivalent)” value is on record as 21^b pg E2 equivalent. In data set [4] (activity relative to E2, × 10^3, 50 ng dose), the “Vaginal R.A × 10^3” value stood at 0.42. Also, the “uterotrophic response (in words)” value with uterus of immature rats (100 μg dose) is given as “small but statistically significant response”. Further, the “Uterotrophic effect 100 μg dose (ng E2 equivalent)” value in the data set on uterus of immature rats (100 μg total dose s.c. over 3 days, immature rats, compared to 5 ng E2, brackets = range, n.s. = not significantly different from the control) is 2 ng E2 equivalent and 2^b ng E2 equivalent. For the same compound, the “Uterotrophic R.A × 10^3” value in the data set with uterus of immature rats (activity relative to E2, × 10^3, 100 μg dose, n.s. = not significantly different from the control) worked out at 0.02.
Turning to `CCOC(=O)[C@@H]1C[C@H]2[C@@H]3CCc4cc(O)ccc4[C@H]3CC[C@]2(C)[C@H]1O` [E16-1,2, reference compound], the “enzymatic velocity for the hydrolysis” value in data set [3] (rat hepatic microsomes, 50 μM ester, 37° C., ± S.D. over the various experiments) is 2.34±0.8 nmol product/min/mg protein. Also, in data set [5], the “ERβ RBA” value turned out to be 0.3 ± 0.1. In addition, in data set [6] (ERα versus ERβ LBD), the “selectivity / preference for ERα” value was roughly 95 fold. The “ERα RBA” value in data set [6] (RBA compared to E2 (=100), LBD of human ERα in E. coli lysates, [3H]E2, ± SD) is listed as 27 ± 6. Also, the “ERα/ERβ (ratio of RBA)” value in data set [6] (ratio RBA of ERα/ERβ, human LBDs, ± SD) is given as 95 ± 47.
Turning to `C[C@]12CC[C@@H]3c4ccc(O)cc4CC[C@H]3[C@@H]1[C@@H](CC(=O)O)C[C@@H]2O` [E15-2,0, (3,17β-Dihydroxyestra-1,3,5(10)-trien-15α-yl)acetic acid], the “Ishikawa cell AlkP (RSA)” value in data set [1] was determined as 0.2 ± 0.2. In data set [2], the “Estrogen Receptor (RBA)” value is recorded as less than 0.1.
The corresponding values for `C[C@]12CC[C@@H]3c4ccc(O)cc4CC[C@H]3[C@@H]1[C@@H](CCC(=O)O)C[C@@H]2O` [E15-3,0, 3-(3,17β-Dihydroxyestra-1,3,5(10)-trien-15α-yl)propionic acid] are 0 and 0.
With `CCOC(=O)C[C@H]1C[C@H](O)[C@@]2(C)CC[C@@H]3c4ccc(O)cc4CC[C@H]3[C@H]12` [E15-2,2, Ethyl(3,17β-dihydroxyestra-1,3,5(10)-trien-15α-yl)acetate], in data set [1], the “Ishikawa cell AlkP (RSA)” value is recorded as 0.4 ± 0.5. In addition, the “Esterase (RHA)” value in data set [3] turned out to be 71 ± 7. Also, in data set [2], the “Estrogen Receptor (RBA)” value amounted to 2 ± 0 and the “RBA” value was found to be 2%.
As to `CCCOC(=O)[C@H]1C[C@H](O)[C@@]2(C)CC[C@@H]3c4ccc(O)cc4CC[C@H]3[C@H]12` [E15-1,3, Propyl(3,17β-dihydroxyestra-1,3,5(10)-trien-15α-yl)formate], the “Ishikawa cell AlkP (RSA)” value in data set [1] came to 2 ± 1. Besides, the “Estrogen Receptor (RBA)” value in data set [2] came out at 17 ± 5.
In the case of `CCCCOC(=O)[C@H]1C[C@H](O)[C@@]2(C)CC[C@@H]3c4ccc(O)cc4CC[C@H]3[C@H]12` [E15-1,4, Butyl(3,17β-dihydroxyestra-1,3,5(10)-trien-15α-yl)formate], the “Ishikawa cell AlkP (RSA)” value in data set [1] was 0.7 ± 0.4. The “Esterase (RHA)” value in data set [3] was determined as 7 ± 0.5. Further, in data set [2], the “Estrogen Receptor (RBA)” value is on record as 8 ± 2.
Take `CC(C)OC(=O)[C@H]1C[C@H](O)[C@@]2(C)CC[C@@H]3c4ccc(O)cc4CC[C@H]3[C@H]12` [E15-1,3i, Isopropyl(3,17β-dihydroxyestra-1,3,5(10)-trien-15α-yl)formate]: the “Ishikawa cell AlkP (RSA)” value in data set [1] is recorded as 0.3 ± 0.06. The “Esterase (RHA)” value in data set [3] worked out at 0.4 ± 0.1. For the same compound, the “RHA” value in data set [3] (rat, 50 μM) stood at 0.3%. Moreover, the “Estrogen Receptor (RBA)” value in data set [2] is listed as 5 ± 4.
